Measured values taken from US20050176735A1, “Polymorphs of zaleplon and methods for the preparation thereof” (priority 2000, published 2005).

How the values were obtained:
[1] = Moisture adsorption/desorption isotherm (moisture balance); format: physicochemical; conditions: for Hygroscopicity from moisture adsorption/desorption curves: 25° C., 5 to 95% relative humidity
Experimental: Moisture adsorption; desorption data were collected on a VTI SGA-100 moisture balance system. available from VTI Corporation of Hialeah, Fla. For adsorption isotherms an adsorption range of 5 to 95% relative humidity and a desorption range of 95 to 5% relative humidity in 10% relative humidity increments were used for analysis. The samples were not dried prior to analysis. Equilibrium criteria used for analysis were less than 0.0100 weight percent change in 5 minutes with a maximum equilibration time of 3 hours if the weight criterion was not met. Data were not corrected for the initial moisture content of-the samples.

[2] = Solid-state stability on storage at controlled temperature and relative humidity or on heating; conditions: for Stability on storage (form conversion): about 60° C. and about 75% relative humidity; for Stability on heating (form conversion): heated at about 80° C.
[3] = Relative solubility in water

SMILES | Relative stability in aqueous and non-aqueous environments (aqueous and non-aqueous environments) | Relative humidity up to which the form is generally anhydrous ([1]; relative humidity) | Stability on storage of hydrates (form conversion) ([2]; about 40° C. and about 75% relative humidity, time not stated) | Stability on storage (form conversion) ([2]; time not stated) | Stability on heating (form conversion) [2] | Form conversion in solvent (solvent system containing an organic solvent and optionally water) | Form conversion in water (water) | Solubility in water relative to the other form [3] | Hygroscopicity from moisture adsorption/desorption curves [1] | Stability on storage ([2]; about 40° C. and about 75% relative humidity for 4 weeks) | Stability on storage (form conversion) ([2]; 4 weeks (same time period)) | Relative stability versus the other forms ([2]; absence of water) | General stability to humidity and temperature ([2]; broad range of humidity and temperature conditions)
CCN(C(C)=O)c1cccc(-c2ccnc3c(C#N)cnn23)c1 [Form III, N-[3-(3-cyanopyrazolo[1,5a]pyrimidin-7-yl)phenyl]-N-ethylacetamide] | more stable in aqueous and non-aqueous environments than Form II | about 30% | resulting in a mixture of Forms II and III | converts to Form I | converts to Form I | – | – | – | – | – | – | – | –
CCN(C(C)=O)c1cccc(-c2ccnc3c(C#N)cnn23)c1 [Form II, N-[3-(3-cyanopyrazolo[1,5a]pyrimidin-7-yl)phenyl]-N-ethylacetamide] | – | – | – | – | converts into Form I | converts into Form III | converted into Form III | mole soluble in water than Form III | moisture content of Form II of zaleplon varies depending on the relative humidity of its environment | stable | converts into Form I | – | –
CCN(C(C)=O)c1cccc(-c2ccnc3c(C#N)cnn23)c1 [Form I, N-[3-(3-cyanopyrazolo[1,5a]pyrimidin-7-yl)phenyl]-N-ethylacetamide] | – | – | – | – | – | – | – | – | non-hygroscopic | – | – | more stable than Forms II and III | stable
